Each structure is given as a SMILES string.

The values below come from patent US6599283B1, “Method of preventing reperfusion injury” (priority 2001, dated 2003).

Data set [1] has as its system AMI patients undergoing primary PTCA. The settings on record: in vivo. How it is done: (§1) Fifty four AMI patients undergoing primary PTCA were randomized to intracoronary adenosine or saline. The 2 groups were similar for age, sex, and infarct location. Patients referred for PTCA within 3 hours from the onset of AMI were considered for the study. Patients underwent diagnostic coronary angiography. If the culprit lesion was suitable for PTCA and presented with a TIMI flow from 0 to 2, the patient was included in the study and randomized after informed consent had been obtained. Patients presenting with TIMI 3 flow were diagnosed as having spontaneous reperfusion and were not included in the study.
After left and right coronary arteriography by the femoral approach, a temporary pacing wire was advanced into the right ventricle and connected with a pacemaker left on demand at 60 bpm. […] The guidewire was then readvanced into the distal vessel, and the balloon was deflated to initiate reperfusion of the ischemic territory. […]
(§2) The primary end points of this study were feasibility and safety of intracoronary adenosine administration in the setting of primary PTCA and its effect on coronary blood flow. As secondary end points, indexes of myocardial damage, including left ventricular regional function, Q-wave MI, recurrence of angina, nonfatal MI, heart failure, and cardiac death were evaluated.

Data set [2] deals with left ventricle. The experiment in a line: Left ventricular regional function by 2D echocardiography. It is filed as in vivo, human. The note with it: echocardiogram after 1 week vs admission. On the procedure:
as §1
(§3) After left and right coronary arteriography by the femoral approach, a temporary pacing wire was advanced into the right ventricle and connected with a pacemaker left on demand at 60 bpm. The obstruction of the infarct-related artery was crossed with a 0.014-in guidewire, and an over-the-wire balloon catheter was positioned at the level of the obstruction. The wire was pulled out, and diluted contrast was injected through the central lumen of the catheter to confirm positioning of the catheter tip downstream of the obstruction and to assess patency of the distal vessel. The balloon was inflated, and either adenosine (4 mg in 2 mL saline) or saline (2 mL) was hand-injected into the distal vascular bed in a random fashion. The rate of injection was such as to complete treatment in 1 minute. The guidewire was then readvanced into the distal vessel, and the balloon was deflated to initiate reperfusion of the ischemic territory. The dilatation procedure was completed according to standard technique. Stenting of the dilated coronary segment was performed only for suboptimal balloon results or flow-limiting dissections. […] The final angiogram was then obtained, and the patient was transferred to the intensive coronary care unit. If symptoms and/or ECG changes consistent with vessel reclosure occurred during this interval, coronary angiography was performed immediately, and therapeutic measures were applied. The dilation procedure was limited to the culprit lesion in all patients.
Left ventricular function was evaluated by 2D echocardiography within 24 hours from admission and after 1 week. Echocardiography was performed with the patient lying supine with a 2.5-MHz transducer fitted to a dedicated system (Hewlett-Packard Sonos 1500). Images were recorded on S-VHS tapes and analyzed offline by 2 experienced observers blinded to the angiographic data. Four views were used: the parasternal long- and short-axis (at the level of the papillary muscle) and apical 2- and 4-chamber views. The left ventricle was divided into 16 segments. In each segment, wall motion was graded as normal, hypokinetic, akinetic, or dyskinetic. Segmental motion at admission was compared with segmental motion at 1 week to detect changes of regional function.

Data set [3] concerns AMI patients undergoing primary PTCA. The experiment in a line: Clinical events / clinical course in hospital after primary PTCA. The format is in vivo, human. On the procedure:
as §1, §3, §2
Physicians in charge of the patients in the intensive coronary care unit were informed of the angiographic results of the PTCA but were blinded to the intracoronary treatment administered during the procedure.

The test system of data set [4] is infarct-related artery. The experiment in a line: Angiographic analysis (residual stenosis, TIMI flow, no-reflow) after primary PTCA. It is filed as in vivo, human. How it is done: as §1
After left and right coronary arteriography by the femoral approach, a temporary pacing wire was advanced into the right ventricle and connected with a pacemaker left on demand at 60 bpm. The obstruction of the infarct-related artery was crossed with a 0.014-in guidewire, and an over-the-wire balloon catheter was positioned at the level of the obstruction. The wire was pulled out, and diluted contrast was injected through the central lumen of the catheter to confirm positioning of the catheter tip downstream of the obstruction and to assess patency of the distal vessel. The balloon was inflated, and either adenosine (4 mg in 2 mL saline) or saline (2 mL) was hand-injected into the distal vascular bed in a random fashion. The rate of injection was such as to complete treatment in 1 minute. The guidewire was then readvanced into the distal vessel, and the balloon was deflated to initiate reperfusion of the ischemic territory. The dilatation procedure was completed according to standard technique. Stenting of the dilated coronary segment was performed only for suboptimal balloon results or flow-limiting dissections. […]
The angiograms were reread as a single group, in chronological sequence, by observers who had not participated in the invasive procedure and were blinded to the treatment received. […] Diameter stenosis was measured by an automatic edge-detection system (Mipron, Kontron). […]

In data set [5] the test system is AMI patients undergoing primary PTCA. Kind of data set: Metabolic data: creatine kinase (CK) and CK-MB. The format is in vivo, human. The settings on record: mean ± SD. On the procedure: as §1
After left and right coronary arteriography by the femoral approach, a temporary pacing wire was advanced into the right ventricle and connected with a pacemaker left on demand at 60 bpm. The obstruction of the infarct-related artery was crossed with a 0.014-in guidewire, and an over-the-wire balloon catheter was positioned at the level of the obstruction. The wire was pulled out, and diluted contrast was injected through the central lumen of the catheter to confirm positioning of the catheter tip downstream of the obstruction and to assess patency of the distal vessel. […] The guidewire was then readvanced into the distal vessel, and the balloon was deflated to initiate reperfusion of the ischemic territory. […]

Where [6] appears, read: intracoronary adenosine 4 mg in 2 mL saline, n = 27.

As to `Nc1ncnc2c1ncn2[C@@H]1O[C@H](CO)[C@@H](O)[C@H]1O` [Adenosine, adenosine], in data set [1], the “Bradyarrhythmias or tachyarrhythmias associated with protocol” value is recorded as “No bradyarrhythmias or tachyarrhythmias”. In addition, in data set [2], the “Regional wall motion unchanged” value stood at 38 segments and the “Worsening of wall motion, share of segments” value came to 2%. In data set [2] (114 dyssynergic segments), the “Wall motion improved, share of initially dyssynergic segments” value is 64% and the “Worsening of wall motion” value is 3 segments. The “Wall motion improved, initially dyssynergic segments” value in data set [2] (114 dyssynergic segments, 23 patients) worked out at 73 segments. For the same compound, in data set [3] (hospital stay), the “Length of hospital stay” value is on record as 9.1 ± 0.8 days. The “Recurrent angina and/or ischemia” value in data set [3] (intracoronary adenosine 4 mg in 2 mL saline into distal vascular bed before balloon deflation, n = 27) was 3(11) number (%) of patients. Besides, in data set [3] (setting [6]), the Cardiac death is recorded as 0(0) number (%) of patients; the “Cumulative clinical end points (recurrent angina and/or ischemia, non-fatal AMI, heart failure, cardiac death)” value was 5(18) number (%) of patients; the Heart failure is 2(7) number (%) of patients; the “Nonfatal AMI” value is 0(0) number (%) of patients. In data set [3] (n = 27), the “Clinical diagnosis of heart failure” value is on record as “Two”; the “Composite end point of recurrent angina, nonfatal MI, heart failure, and cardiac death” value came out at 5 patients; the Deaths in hospital result is listed as “No deaths”; the “Developed a Q-wave ML” value was “Sixteen”. Besides, the Recurrence of angina result in data set [3] (n = 27) was “Three”. Besides, the “Residual diameter stenosis by quantitative coronary arteriography” value in data set [4] (after PTCA, mean ± SD) is reported as 27.8±9.5%. Further, the “Flow in the infarct-related artery (TIMI grade)” value in data set [4] (at the end of the dilation procedure) is reported as “TIMI 3 in all adenosine patients”. In data set [4] (final angiogram 30 minutes after dilation, n = 27), the “No-reflow phenomenon (drop of ≧1 TIMI grades in final angiogram relative to post-PTCA angiogram)” value was found to be 1 patient. Besides, in data set [5], the “Peak CK” value came out at 1994±1782 U/L and the “Peak CK-MB” value turned out to be 156±142 UAL.
